Source: patent publication US10077261B2, “Imidazolin-5-one derivative useful as FASN inhibitors for the treatment of cancer” (Janssen Pharmaceutica NV, priority 2012, dated 2018)
Where two headings read alike, the source gives them in different places.

Biological target: T1, hFASN enzyme (full length) (Homo sapiens, UniProt P49327)
T1 construct: 10 μL hFASN enzyme (full length, 300 ng, purified in house); made in house
Experiment: Fatty Acid Synthase (FASN) inhibition scintillation proximity assay
Type: biochemical
Details: for IC50: read-out: Human FASN pIC50 (converted)
Summary of the method: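 Full-length in-house purified enzyme (300 ng) was tested in 100 mM KH2PO4 pH 7.5, 1 mM DTT with ³H-acetyl-CoA and malonyl-CoA as substrates; compounds ranged 0.01–30 μM. Reactions were stopped with streptavidin imaging beads, read by LEADseeker at 610 nm, and fitted to a 4-parameter logistic curve.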

[1] = read-out: Human FASN % inhibition @ 10 μM, 10 μM test compound

T1 sequence (P49327 whole entry): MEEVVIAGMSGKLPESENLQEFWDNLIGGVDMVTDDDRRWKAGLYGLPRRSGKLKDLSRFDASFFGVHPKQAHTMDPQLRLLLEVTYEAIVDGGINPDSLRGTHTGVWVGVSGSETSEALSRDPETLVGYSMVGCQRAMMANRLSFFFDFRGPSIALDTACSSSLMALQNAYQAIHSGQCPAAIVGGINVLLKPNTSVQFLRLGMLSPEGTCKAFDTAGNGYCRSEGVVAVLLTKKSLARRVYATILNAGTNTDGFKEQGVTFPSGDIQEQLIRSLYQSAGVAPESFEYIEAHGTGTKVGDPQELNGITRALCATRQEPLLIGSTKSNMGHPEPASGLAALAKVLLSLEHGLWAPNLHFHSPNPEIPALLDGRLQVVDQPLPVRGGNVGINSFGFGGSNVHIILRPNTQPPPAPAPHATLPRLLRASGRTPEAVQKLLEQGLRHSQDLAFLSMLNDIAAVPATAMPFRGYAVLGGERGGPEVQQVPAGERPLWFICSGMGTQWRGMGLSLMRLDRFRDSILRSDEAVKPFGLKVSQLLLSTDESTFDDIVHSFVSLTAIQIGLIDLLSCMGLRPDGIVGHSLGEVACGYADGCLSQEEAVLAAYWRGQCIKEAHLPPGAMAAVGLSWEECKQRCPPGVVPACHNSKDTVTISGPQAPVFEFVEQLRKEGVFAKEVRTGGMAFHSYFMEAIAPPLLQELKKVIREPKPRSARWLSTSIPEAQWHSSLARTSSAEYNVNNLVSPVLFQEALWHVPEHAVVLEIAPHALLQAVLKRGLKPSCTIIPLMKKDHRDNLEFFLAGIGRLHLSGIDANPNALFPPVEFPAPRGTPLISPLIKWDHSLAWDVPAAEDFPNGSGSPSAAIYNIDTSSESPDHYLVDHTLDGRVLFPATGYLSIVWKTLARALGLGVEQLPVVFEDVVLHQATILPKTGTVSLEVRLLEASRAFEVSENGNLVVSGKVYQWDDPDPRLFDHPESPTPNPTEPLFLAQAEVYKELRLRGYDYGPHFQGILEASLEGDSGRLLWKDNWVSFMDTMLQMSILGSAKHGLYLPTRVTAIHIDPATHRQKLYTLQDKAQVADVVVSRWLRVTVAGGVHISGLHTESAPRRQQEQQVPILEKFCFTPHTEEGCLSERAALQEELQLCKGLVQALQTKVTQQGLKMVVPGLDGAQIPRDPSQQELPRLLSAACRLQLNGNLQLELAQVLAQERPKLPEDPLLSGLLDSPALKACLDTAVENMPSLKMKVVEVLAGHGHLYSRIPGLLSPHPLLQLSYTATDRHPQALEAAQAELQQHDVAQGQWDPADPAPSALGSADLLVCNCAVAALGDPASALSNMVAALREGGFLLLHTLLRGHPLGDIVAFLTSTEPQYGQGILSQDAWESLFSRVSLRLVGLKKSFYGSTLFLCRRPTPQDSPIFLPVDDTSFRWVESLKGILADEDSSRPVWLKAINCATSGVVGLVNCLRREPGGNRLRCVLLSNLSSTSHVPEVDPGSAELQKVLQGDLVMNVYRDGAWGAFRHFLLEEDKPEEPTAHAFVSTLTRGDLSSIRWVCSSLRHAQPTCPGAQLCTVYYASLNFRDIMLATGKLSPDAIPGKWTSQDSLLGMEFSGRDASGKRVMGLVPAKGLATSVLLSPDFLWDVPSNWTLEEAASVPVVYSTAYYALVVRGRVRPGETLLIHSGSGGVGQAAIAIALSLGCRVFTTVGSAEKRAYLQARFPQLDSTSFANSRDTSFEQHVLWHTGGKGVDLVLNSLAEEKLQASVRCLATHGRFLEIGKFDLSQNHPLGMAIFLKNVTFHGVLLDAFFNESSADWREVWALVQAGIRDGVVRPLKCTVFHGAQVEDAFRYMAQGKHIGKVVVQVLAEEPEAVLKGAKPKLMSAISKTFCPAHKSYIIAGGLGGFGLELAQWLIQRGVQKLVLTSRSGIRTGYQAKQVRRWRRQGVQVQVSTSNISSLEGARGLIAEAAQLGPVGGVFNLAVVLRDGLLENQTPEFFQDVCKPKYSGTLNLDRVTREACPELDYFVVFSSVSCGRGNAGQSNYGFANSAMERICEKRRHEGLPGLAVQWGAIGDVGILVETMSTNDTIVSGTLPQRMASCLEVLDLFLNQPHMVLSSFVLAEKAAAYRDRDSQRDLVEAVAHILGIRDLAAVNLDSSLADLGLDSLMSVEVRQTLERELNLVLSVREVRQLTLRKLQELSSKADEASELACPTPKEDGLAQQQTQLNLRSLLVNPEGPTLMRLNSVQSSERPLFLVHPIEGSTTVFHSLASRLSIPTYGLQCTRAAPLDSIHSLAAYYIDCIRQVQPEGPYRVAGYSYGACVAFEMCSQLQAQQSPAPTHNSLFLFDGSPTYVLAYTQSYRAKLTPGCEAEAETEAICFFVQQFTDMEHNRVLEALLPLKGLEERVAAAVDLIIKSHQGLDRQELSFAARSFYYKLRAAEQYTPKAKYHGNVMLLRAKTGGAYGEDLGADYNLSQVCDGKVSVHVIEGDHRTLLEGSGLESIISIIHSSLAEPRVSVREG

| Compound | inhibition at 10 µM [1] | IC50 | inhibition at 10 µM (read-out: Human FASN % inhibition @ 10 μM) |
| --- | --- | --- | --- |
| O=C(C1CC1)N1CCC[C@@H](CN2C(=O)C3(CC3)N=C2c2ccc(-c3ccc4sccc4c3)cc2)C1 [compound 394, 5-[4-(1-Benzothiophen-5-yl)phenyl]-6-{[(3R)-1-(cyclopropylcarbonyl)piperidin-3-yl]methyl}-4,6-diazaspiro[2.4]hept-4-en-7-one] | 84% | 1.07 µM | – |
| O=C(C1CC1)N1CC(CN2C(=O)C3(CC3)N=C2c2ccc(-c3ccc4nccnc4c3)cc2)C1 [compound 481, 6-{[1-(Cyclopropylcarbonyl)azetidin-3-yl]methyl}-5-(4-quinoxalin-6-ylphenyl)-4,6-diazaspiro[2.4]hept-4-en-7-one] | 68% | 2.19 µM | – |
| Cn1cc(-c2ccc(-c3ccc(C4=NC5(CCOC5)C(=O)N4C[C@@H]4CCN(C(=O)N5CCCC5)C4)cc3)cc2)cn1 (stereo partly drawn) [compound 679, 2-[4′-(1-Methyl-1H-pyrazol-4-yl)biphenyl-4-yl]-3-{[(3S)-1-(pyrrolidin-1-ylcarbonyl)pyrrolidin-3-yl]methyl}-7-oxa-1,3-diazaspiro[4.4]non-1-en-4-one] | 57% | ~6.17 µM | – |
| O=C1CCc2ccc(-c3ccc(C4=NC5(CC5)C(=O)N4C[C@@H]4CCN(C(=O)C5CC5)C4)cc3)cc2N1 [compound 809, (R)-7-(4-(6-((1-(cyclopropanecarbonyl)pyrrolidin-3-yl)methyl)-7-oxo-4,6-diazaspiro[2.4]hept-4-en-5-yl)phenyl)-3,4-dihydroquinolin-2(1H)-one] | 29% | > 10 µM | – |
| COC(=O)N1CC(CN2C(=O)C3(CCOCC3)N=C2c2ccc(-c3ccc4c(cnn4C)c3)cc2)C1 [compound 941, methyl 3-((2-(4-(1-methyl-1H-indazol-5-yl)phenyl)-4-oxo-8-oxa-1,3-diazaspiro[4.5]dec-1-en-3-yl)methyl)azetidine-1-carboxylate] | 5% | > 10 µM | – |
| COC(=O)N1CC[C@@H](CN2C(=O)C3(CN(C(=O)OC)C3)N=C2c2ccc(-c3ccc4c(cnn4C)c3)cc2)C1 [compound 916, (S)-methyl 7-((1-(methoxycarbonyl)pyrrolidin-3-yl)methyl)-6-(4-(1-methyl-1H-indazol-5-yl)phenyl)-8-oxo-5,7-triazaspiro[3.4]oct-5-ene-2-carboxylate] | 20% | > 10 µM | – |
| O=C(C1CC1)N1CCC[C@@H](CN2C(=O)C3(CC3)N=C2c2ccc(-c3ccc(-c4cccc(Cl)c4)cc3)cc2)C1 [compound 820, (R)-5-(3″-chloro-[1,1′:4′,1″-terphenyl]-4-yl)-6-((1-(cyclopropanecarbonyl)piperidin-3-yl)methyl)-4,6-diazaspiro[2.4]hept-4-en-7-one] | 33% | > 10 µM | – |
| COC(=O)N1CC[C@@H](CN2C(=O)C3(CCOC3)N=C2c2ccc(-c3ccc4occc4c3)cc2)C1 (stereo partly drawn) [compound 954, (3S)-methyl 3-((2-(4-(benzofuran-5-yl)phenyl)-4-oxo-7-oxa-1,3-diazaspiro[4.4]non-1-en-3-yl)methyl)pyrrolidine-1-carboxylate] | 27% | > 10 µM | – |
| Cc1cc(C2=NC3(CC3)C(=O)N2CC2CN(C(=O)C3CC3)C2)ccc1-c1ccc2oc(C#N)cc2c1 [compound 460, 5-[4-(6-{[1-(Cyclopropylcarbonyl)azetidin-3-yl]methyl}-7-oxo-4,6-diazaspiro[2.4]hept-4-en-5-yl)-2-methylphenyl]-1-benzofuran-2-carbonitrile] | 63% | 3.09 µM | – |
| Cn1ncc2cc(-c3ccc(C4=NC5(CC5)C(=O)N4C[C@H]4CCCN(C(=O)C5CC5)C4)cc3)ccc21 [compound 819, (S)-6-((1-(cyclopropanecarbonyl)piperidin-3-yl)methyl)-5-(4-(1-methyl-1H-indazol-5-yl)phenyl)-4,6-diazaspiro[2.4]hept-4-en-7-one] | 10% | – | – |
| Cn1cc(-c2ccc(-c3ccc(C4=NC5(CC5)C(=O)N4C[C@H]4CCCN(C(=O)C5CC5)C4)cc3)cc2)cn1 [compound 815, (S)-6-((1-(cyclopropanecarbonyl)piperidin-3-yl)methyl)-5-(4′-(1-methyl-1H-pyrazol-4-yl)-[1,1′-biphenyl]-4-yl)-4,6-diazaspiro[2.4]hept-4-en-7-one] | 1% | > 10 µM | – |
| O=C(N1CCCC1)N1CC[C@@H](CN2C(=O)C3(CCOCC3)N=C2c2ccc(-c3ccc4occc4c3)cc2)C1 [compound 671, 2-[4-(1-Benzofuran-5-yl)phenyl]-3-{[(3S)-1-(pyrrolidin-1-ylcarbonyl)pyrrolidin-3-yl]methyl}-8-oxa-1,3-diazaspiro[4.5]dec-1-en-4-one] | 76% | 1.66 µM | – |
| COC(=O)N1CC[C@@H](CN2C(=O)C3(CCOC3)N=C2c2ccc(-c3ccc4c(cnn4C)c3)cc2)C1 (stereo partly drawn) [compound 915, (3S)-methyl 3-((2-(4-(1-methyl-1H-indazol-5-yl)phenyl)-4-oxo-7-oxa-1,3-diazaspiro[4.4]non-1-en-3-yl)methyl)pyrrolidin-1-carboxylate] | 11% | > 10 µM | – |
| O=C(C1CC1)N1CC(CN2C(=O)C3(CC3)N=C2c2ccc(-c3ccc4c(cnn4C4CC4)c3)cc2)C1 [compound 803, 6-((1-(cyclopropanecarbonyl)azetidin-3-yl)methyl)-5-(4-(1-cyclopropyl-1H-indazol-5-yl)phenyl)-4,6-diazaspiro[2.4]hept-4-en-7-one] | 48% | > 10 µM | – |
| CCn1ncc2cc(-c3ccc(C4=NC5(CC5)C(=O)N4CC4CN(C(=O)C5CC5)C4)cc3)ccc21 [compound 505, 6-{[1-(Cyclopropylcarbonyl)azetidin-3-yl]methyl}-5-[4-(1-ethyl-1H-indazol-5-yl)phenyl]-4,6-diazaspiro[2.4]hept-4-en-7-one] | 80% | 1.17 µM | – |
| O=C(c1nccs1)N1CC(CN2C(=O)C3(CCOC3)N=C2c2ccc(-c3ccc4cccnc4c3)cc2)C1 (stereo not drawn) [compound 930, 2-(4-(quinolin-7-yl)phenyl)-3-((1-(thiazole-2-carbonyl)azetidin-3-yl)methyl)-7-oxa-1,3-diazaspiro[4.4]non-1-en-4-one] | -14% | > 10 µM | – |
| CC(=O)c1ccc(-c2ccc(C3=NC4(CCCC4)C(=O)N3C[C@@H]3CCN(C(=O)C4CC4)C3)c(F)c2)cc1 [compound 886, (R)-2-(4′-acetyl-3-fluoro-[1,1′-biphenyl]-4-yl)-3-((1-(cyclopropanecarbonyl)pyrrolidin-3-yl)methyl)-1,3-diazaspiro[4.4]non-1-en-4-one] | 79% | 1.91 µM | – |
| Cn1ncc2cc(-c3ccc(C4=NC5(CCN(S(C)(=O)=O)CC5)C(=O)N4CC4CN(C(=O)C5CC5)C4)cc3)ccc21 [compound 761, 3-{[1-(Cyclopropylcarbonyl)azetidin-3-yl]methyl}-2-[4-(1-methyl-1H-indazol-5-yl)phenyl]-8-(methylsulfonyl)-1,3,8-triazaspiro[4.5]dec-1-en-4-one] | 45% | ~7.59 µM | – |
| Cc1cc2cc(-c3ccc(C4=NC5(CC5)C(=O)N4CC4CN(C(=O)C5CC5)C4)cc3C)ccc2s1 [compound 446, 6-{[1-(Cyclopropylcarbonyl)azetidin-3-yl]methyl}-5-[3-methyl-4-(2-methyl-1-benzothiophen-5-yl)phenyl]-4,6-diazaspiro[2.4]hept-4-en-7-one] | 60% | 5.01 µM | – |
| CC(O)C(=O)N1CC(CN2C(=O)C3(CCOC3)N=C2c2ccc(-c3ccc4occc4c3)cc2)C1 (stereo not drawn) [compound 719, 2-[4-(1-Benzofuran-5-yl)phenyl]-3-{[1-(2-hydroxypropanoyl)azetidin-3-yl]methyl}-7-oxa-1,3-diazaspiro[4.4]non-1-en-4-one] | 67% | 3.89 µM | – |
| O=C(c1nccs1)N1CC[C@@H](CN2C(=O)C3(CCOCC3)N=C2c2ccc(-c3ccc4occc4c3)cc2)C1 [compound 958, (R)-2-(4-(benzofuran-5-yl)phenyl)-3-((1-(thiazole-2-carbonyl)pyrrolidin-3-yl)methyl)-8-oxa-1,3-diazaspiro[4.5]dec-1-en-4-one] | -6% | > 10 µM | – |
| Cn1ncc2cc(-c3ccc(C4=NC5(CCOCC5)C(=O)N4CC4CN(C(=O)C(F)(F)F)C4)cc3)ccc21 [compound 935, 2-(4-(1-methyl-1H-indazol-5-yl)phenyl)-3-((1-(2,2,2-trifluoroacetyl)azetidin-3-yl)methyl)-8-oxa-1,3-diazaspiro[4.5]dec-1-en-4-one] | -2% | > 10 µM | – |
| O=C(C1CC1)N1CCC(CN2C(=O)C3(CC3)N=C2c2ccc(-c3ccc(F)cc3)cc2)CC1 [compound 110, 6-{[1-(Cyclopropylcarbonyl)piperidin-4-yl]methyl}-5-(4′-fluorobiphenyl-4-yl)-diazaspiro[2.4]hept-4-en-7-one] | – | > 10 µM | 32.6% |
| N#Cc1cccc(-c2ccc(C3=NC4(CC4)C(=O)N3C[C@@H]3CCN(C(=O)C4CC4)C3)cc2)c1 [compound 123, 4′-(6-{[(3R)-1-(Cyclopropylcarbonyl)pyrrolidin-3-yl]methyl}-7-oxo-4,6-diazaspiro[2.4]hept-4-en-5-yl)biphenyl-3-carbonitrile] | 81.5% | 1.26 µM | – |
| O=C(C1CC1)N1CC(CN2C(=O)C3(CC3)N=C2c2ccc(-c3ccc(O)cc3)cc2)C1 [compound 50, 6-{[1-(Cyclopropylcarbonyl)azetidin-3-yl]methyl}-5-(4′-hydroxybiphenyl-4-yl)-4,6-diazaspiro[2.4]hept-4-en-7-one] | 64.8% | 3.47 µM | – |
| O=C(C1CC1)N1CC(CN2C(=O)C3(CC3)N=C2c2ccc(-c3ccc(Br)cn3)cc2)C1 [compound 887, 5-(4-(5-bromopyridin-2-yl)phenyl)-6-((1-(cyclopropanecarbonyl)azetidin-3-yl)methyl)-4,6-diazaspiro[2.4]hept-4-en-7-one] | 73% | 4.07 µM | – |
